Test results published in US20240067685A1, “HIDDEN ANTIBIOTICS IN THE HUMAN PROTEOME” (priority 2022, published 2024).
No end group written: not given here.

Key:
S. aureus MRSA (WKZ-2) = tested on: S. aureus MRSA (WKZ-2)
Method: (§1) Antimicrobial activity. The antimicrobial activity of ApoB-derived encrypted peptides was assessed against a panel of skin pathogens, such as S. epidermidis ATCC 35984, S. aureus ATCC 12600, A. baumannii ATCC 17878, K. pneumoniae ATCC 700603, S. aureus MRSA (WK7-2), E. faecalis ATCC 29212 and P. aeruginosa PAO1 by using the broth microdilution method. ^20 Bacteria were grown to mid-logarithmic phase in MHB at 37° C. […] Following incubation over-night, each sample was diluted, plated on TSA, and incubated at 37° C. for 24 h to count the number of colonies. All experiments were performed in three independent replicates.

[1] = tested on: P. aeruginosa wild-type PAO1
Method: as §1

E. faecalis ATCC 29212 = tested on: E. faecalis ATCC 29212
Method: as §1

in vitro [2] = details: 25% fetal bovine serum
Method: To determine its proteolytic stability, it was assessed whether (ri)-r(P)ApoBS^Pro was less susceptible to serum proteases compared to its parent peptide r(P)ApoBS^Pro.
Stability assay. The resistance to enzymatic degradation assay was performed according to the method described by Powell et al. ^72 Briefly, peptides at 2 mg mL^−1 were exposed to a solution of 25% fetal bovine serum in water. Aliquots were collected after 0.5, 1, 2, and 4 h and 10 μL of trifluoroacetic acid was added to them while the samples were on ice for 10 min. The enzymatic degradation of peptides was followed by reverse-phase high performance liquid chromatography coupled to mass spectrometry (RP-HPLC/ESI-MS). The percentage of remaining peptide was calculated by integrating the area under the curve related to the peptide at time point zero.
where AUCX is the area under the curve of the peak related to the peptide after t h (t=0.5, 1, 2, and 4 h), and AUC0 is the area under the curve of the peak related to the peptide at the beginning of the experiment. Three independent experimental replicates were performed, as previously described. ^73

[3] = tested on: Acinetobacter baumannii ATCC 17878; type: cell-based; details: ATCC 17878, 16 h
Method: (§2) Antimicrobial activity of peptides upon pre-incubation in 10% serum. The antimicrobial activity of r(P)ApoBS^Pro and (ri)-r(P)ApoBS^Pro was evaluated against four bacterial strains upon pre-incubation in 10% FBS (fetal bovine serum, Microgem Lab, Cat. 51860, Italy). All the peptides were incubated for 1 h or 16 h in serum at 37° C. (water bath) prior to MIC value determination by standard protocols. ^20 Experiments were carried out in triplicate for each peptide.

[4] = tested on: Klebsiella pneumoniae ATCC 700603; type: cell-based; details: ATCC 700603, 16 h
Method: as §2

[5] = tested on: Staphylococcus aureus ATCC 12600; type: cell-based; details: ATCC 12600, 16 h
Method: as §2

[6] = tested on: K. pneumoniae ATCC 700603; assay: microbe, parasite or virus in culture; details: ATCC 700603
Method: as §1

[7] = tested on: S. epidermidis ATCC 35984; assay: microbe, parasite or virus in culture; details: ATCC 35984
Method: as §1

A. baumannii ATCC 17878 = assay: microbe, parasite or virus in culture; details: ATCC 17878
Method: as §1

S. aureus ATCC 12600 = assay: microbe, parasite or virus in culture; details: ATCC 12600
Method: as §1

in vitro [8] = type: cell-based; details: human
Method: Cytokine-mediated immunogenicity is one potential side effect of peptide therapeutics as it can lead to cytotoxic effects and allergic responses. ^21,45 To determine whether the peptides exerted any toxic effects against eukaryotic cells and to verify their biocompatibility towards skin cell cultures, dose-response and time-course 3-(4, 5-dimethylthiazolyl-2)-2,5-diphenyltetrazolium bromide (MTT) and lactate dehydrogenase (LDH) cytotoxicity assays were performed against both human dermal fibroblasts (HDF) and human epidermoid carcinoma cell (A431) lines. Due to their cationic nature, most AMPs preferentially interact with negatively charged membranes, such as those of bacteria. […] To evaluate whether peptides exert cytostatic or cytotoxic effects through membrane damage, LDH release in culture medium was detected as a biomarker of membrane damage. ^50 Thus, human dermal fibroblasts (HDF) and human epidermoid carcinoma cells (A431) were treated with each peptide at a concentration of 10 and 20 μmol L^−1 for 72 h. No significant LDH release was detected, thus indicating no damage to eukaryotic cell membranes caused by exposure to the peptides (FIG. 7C).
Eukaryotic cell culture and cytotoxicity assays. […] Cell viability was expressed as means of the percentage values compared to control untreated cells. […]

PHVALKPGKLKFIIPSPKRPVKLLSG [r(P)ApoBS^Pro]
MIC (S. aureus MRSA (WKZ-2)): 10 µM
MIC [1]: 10 µM
MIC (E. faecalis ATCC 29212): 20 µM
stability in the presence of serum (in vitro [2]): degraded within minutes
exposure time after which peptide degraded (in vitro [2]; RP-HPLC/ESI-MS): 30 min
MIC upon incubation in serum [3]: > 80 µM
MIC upon incubation in serum [4]: > 80 µM
MIC upon incubation in serum [5]: > 80 µM
MIC [6]: 5 µM
MIC [7]: 10 µM
MIC (A. baumannii ATCC 17878): 5 µM
MIC (S. aureus ATCC 12600): 20 µM
cytotoxicity at 24 h (in vitro [8]): 30%
